System: cantharidin-induced inflammation of rat ear
Experiment: Cantharidin induced inflammation in the rat (topical activity, ear skin punch weight)
Type: in vivo, rat (Charles River CD, 21-day-old male)
Conditions: topical dose 100 μg, with 400 μg cantharidin in 0.1 ml vehicle on rat ears; 72 hours
Description: CANTHARIDIN INDUCED INFLAMMATION IN THE RAT
A solvent vehicle was prepared which was used to apply cantharidin or cantharidin and test compound to rats. The solvent vehicle was a solution of 1 part ethanol, 1.5 parts collodion, 2 parts acetone and 3 parts diethylether. When it was desired to apply cantharidin to rats, cantharidin was added to the solvent vehicle in such an amount that there were 400 μg of cantharidin in 0.1 ml of solvent vehicle. When it was desired to apply cantharidin and test compound to rats, cantharidin and test compound were added to the solvent vehicle in such amounts that there were both 400 μg of cantharidin and 100 μg of test compound in 0.1 ml of solvent vehicle. Cantharidin or cantharidin plus the test compound at a dose of 100 μg were applied topically to the outer surface of the ears of Charles River CD 21-day-old male rats in a volume of 0.1 ml of solvent vehicle described above. Separate groups of rats were treated with solvent vehicle alone, cantharidin alone, and cantharidin plus test compound. Autopsy was carried out 72 hours after cantharidin administration. Uniform punches were obtained through the site of application and weighed. Weight changes reflect effects on both the fluid and tissue components of the inflammatory process. […]

| SMILES | % Inhibition of Inflammation [%] |
| --- | --- |
| CN1CC=C(C2=Cc3ccccc3Cc3ccc(Br)cc32)CC1 [4-(2-bromodibenzo[a,d]cycloheptatriene-11-yl)-1,2,3,6-tetrahydro-1-methylpyridine] | 37 |
| CN1CC=C(C2=Cc3ccccc3Oc3ccc(Br)cc32)CC1 [4-(8-bromodibenz[b,f]oxepin-10-yl)-1,2,3,6-tetrahydro-1-methylpyridine] | 36 |
